Measured values published in patent US10906873B2, “Substituted cyclic amides as herbicides” (FMC Corporation, priority 2015, dated 2021).

System: galium (catchweed bedstraw, Galium aparine)
Experiment: Test A postemergence, galium
Type: in vivo
Settings: 125 g ai/ha, 0 to 100 scale
Description: (§1) Seeds of plant species selected from barnyardgrass (Echinochloa crus-galli), crabgrass (large crabgrass, Digitaria sanguinalis), kochia (Kochia scoparia), ragweed (common ragweed, Ambrosia elatior), morningglory (Ipomoea spp.), velvetleaf (Abutilon theophrasti), ryegrass, It. (Italian ryegrass, Lolium multiflorum), foxtail, giant (giant foxtail, Setaria faberii), wheat (Triticum aestivum), corn (Zea mays), and pigweed (Amaranthus retroflexus), were planted into a blend of loam soil and sand and treated preemergence with a directed soil spray using test chemicals formulated in a non-phytotoxic solvent mixture which included a surfactant. At the same time, plants selected from these crop and weed species and also blackgrass (Alopecurus myosuroides), and galium (catchweed bedstraw, Galium aparine), were planted in pots containing the same blend of loam soil and sand and treated with postemergence applications of test chemicals formulated in the same manner. Plants ranged in height from 2 to 10 cm and were in the one- to two-leaf stage for the postemergence treatment. Treated plants and untreated controls were maintained in a greenhouse for approximately 10 d, after which time all treated plants were compared to untreated controls and visually evaluated for injury. Plant response ratings, summarized in Table A, are based on a 0 to 100 scale where 0 is no effect and 100 is complete control. A dash (-) response means no test result.

| SMILES | Plant response rating, Galium |
| --- | --- |
| O=C1NCC(Cc2cccc(C(F)(F)F)c2)C1C(=O)Nc1cccc(F)c1F (stereo not drawn) [Compound 11] | 0 |

Same assay, conditions: 500 g ai/ha, 0 to 100 scale

| SMILES | Plant response rating, Galium |
| --- | --- |
| O=C1NCC(Cc2cccc(C(F)(F)F)c2)C1C(=O)Nc1cccc(F)c1F (stereo not drawn) [Compound 11] | 0 |

System: kochia (Kochia scoparia)
Experiment: Test A preemergence, kochia
Type: in vivo
Settings: 125 g ai/ha, 0 to 100 scale
Description: as §1

| SMILES | Plant response rating, Kochia |
| --- | --- |
| O=C1NCC(Cc2cccc(C(F)(F)F)c2)C1C(=O)Nc1cccc(F)c1F (stereo not drawn) [Compound 11] | 0 |

Same assay, conditions: 500 g ai/ha, 0 to 100 scale

| SMILES | Plant response rating, Kochia |
| --- | --- |
| O=C1NCC(Cc2cccc(C(F)(F)F)c2)C1C(=O)Nc1cccc(F)c1F (stereo not drawn) [Compound 11] | 0 |

System: ragweed (common ragweed, Ambrosia elatior)
Experiment: Test A postemergence, ragweed
Type: in vivo
Settings: 125 g ai/ha, 0 to 100 scale
Description: as §1

| SMILES | Plant response rating, Ragweed |
| --- | --- |
| O=C1NCC(Cc2cccc(C(F)(F)F)c2)C1C(=O)Nc1cccc(F)c1F (stereo not drawn) [Compound 11] | 0 |

Same assay, conditions: 500 g ai/ha, 0 to 100 scale

| SMILES | Plant response rating, Ragweed |
| --- | --- |
| O=C1NCC(Cc2cccc(C(F)(F)F)c2)C1C(=O)Nc1cccc(F)c1F (stereo not drawn) [Compound 11] | 0 |

System: ragweed (common ragweed, Ambrosia elatior)
Experiment: Test A preemergence, ragweed
Type: in vivo
Settings: 125 g ai/ha, 0 to 100 scale
Description: as §1

| SMILES | Plant response rating, Ragweed |
| --- | --- |
| O=C1NCC(Cc2cccc(C(F)(F)F)c2)C1C(=O)Nc1cccc(F)c1F (stereo not drawn) [Compound 11] | 0 |

Same assay, conditions: 500 g ai/ha, 0 to 100 scale

| SMILES | Plant response rating, Ragweed |
| --- | --- |
| O=C1NCC(Cc2cccc(C(F)(F)F)c2)C1C(=O)Nc1cccc(F)c1F (stereo not drawn) [Compound 11] | 0 |

System: barnyardgrass (Echinochloa crus-galli)
Experiment: Test B flooded paddy test, barnyardgrass
Type: in vivo
Settings: Flood, 500 g ai/ha; scale of 0 to 100 where 0 is no effect and 100 is complete control; 13 to 15 d
Method: (§2) Plant species in the flooded paddy test selected from rice (Oryza sativa), sedge, umbrella (small-flower umbrella sedge, Cyperus difformis), ducksalad (Heteranthera limosa), and barnyardgrass (Echinochloa crus-galli) were grown to the 2-leaf stage for testing. At time of treatment, test pots were flooded to 3 cm above the soil surface, treated by application of test compounds directly to the paddy water, and then maintained at that water depth for the duration of the test. Treated plants and controls were maintained in a greenhouse for 13 to 15 d, after which time all species were compared to controls and visually evaluated. Plant response ratings, summarized in Table B, are based on a scale of 0 to 100 where 0 is no effect and 100 is complete control. A dash (-) response means no test result.

| SMILES | Plant response rating, Barnyardgrass |
| --- | --- |
| O=C1NCC(Cc2cccc(C(F)(F)F)c2)C1C(=O)Nc1cccc(F)c1F (stereo not drawn) [Compound 11] | 0 |

System: pigweed (Amaranthus retroflexus)
Experiment: Test A preemergence, pigweed
Type: in vivo
Settings: 125 g ai/ha, 0 to 100 scale
Description: as §1

| SMILES | Plant response rating, Pigweed |
| --- | --- |
| O=C1NCC(Cc2cccc(C(F)(F)F)c2)C1C(=O)Nc1cccc(F)c1F (stereo not drawn) [Compound 11] | 0 |

Same assay, conditions: 500 g ai/ha, 0 to 100 scale

| SMILES | Plant response rating, Pigweed |
| --- | --- |
| O=C1NCC(Cc2cccc(C(F)(F)F)c2)C1C(=O)Nc1cccc(F)c1F (stereo not drawn) [Compound 11] | 0 |

System: rice (Oryza sativa)
Experiment: Test B flooded paddy test, rice
Type: in vivo
Settings: Flood, 500 g ai/ha; scale of 0 to 100 where 0 is no effect and 100 is complete control; 13 to 15 d
Method: as §2

| SMILES | Plant response rating, Rice |
| --- | --- |
| O=C1NCC(Cc2cccc(C(F)(F)F)c2)C1C(=O)Nc1cccc(F)c1F (stereo not drawn) [Compound 11] | 0 |

System: ryegrass, It. (Italian ryegrass, Lolium multiflorum)
Experiment: Test A postemergence, ryegrass, It.
Type: in vivo
Settings: 125 g ai/ha, 0 to 100 scale
Description: as §1

| SMILES | Plant response rating, Ryegrass, It. |
| --- | --- |
| O=C1NCC(Cc2cccc(C(F)(F)F)c2)C1C(=O)Nc1cccc(F)c1F (stereo not drawn) [Compound 11] | 0 |

Same assay, conditions: 500 g ai/ha, 0 to 100 scale

| SMILES | Plant response rating, Ryegrass, It. |
| --- | --- |
| O=C1NCC(Cc2cccc(C(F)(F)F)c2)C1C(=O)Nc1cccc(F)c1F (stereo not drawn) [Compound 11] | 0 |

System: barnyardgrass (Echinochloa crus-galli)
Experiment: Test A postemergence, barnyardgrass
Type: in vivo
Settings: 125 g ai/ha, 0 to 100 scale
Description: as §1

| SMILES | Plant response rating, Barnyardgrass |
| --- | --- |
| O=C1NCC(Cc2cccc(C(F)(F)F)c2)C1C(=O)Nc1cccc(F)c1F (stereo not drawn) [Compound 11] | 0 |

Same assay, conditions: 500 g ai/ha, 0 to 100 scale

| SMILES | Plant response rating, Barnyardgrass |
| --- | --- |
| O=C1NCC(Cc2cccc(C(F)(F)F)c2)C1C(=O)Nc1cccc(F)c1F (stereo not drawn) [Compound 11] | 0 |

System: pigweed (Amaranthus retroflexus)
Experiment: Test A postemergence, pigweed
Type: in vivo
Settings: 125 g ai/ha, 0 to 100 scale
Description: as §1

| SMILES | Plant response rating, Pigweed |
| --- | --- |
| O=C1NCC(Cc2cccc(C(F)(F)F)c2)C1C(=O)Nc1cccc(F)c1F (stereo not drawn) [Compound 11] | 0 |

Same assay, conditions: 500 g ai/ha, 0 to 100 scale

| SMILES | Plant response rating, Pigweed |
| --- | --- |
| O=C1NCC(Cc2cccc(C(F)(F)F)c2)C1C(=O)Nc1cccc(F)c1F (stereo not drawn) [Compound 11] | 0 |

System: corn (Zea mays)
Experiment: Test A postemergence, corn
Type: in vivo
Settings: 125 g ai/ha, 0 to 100 scale
Description: as §1

| SMILES | Plant response rating, Corn |
| --- | --- |
| O=C1NCC(Cc2cccc(C(F)(F)F)c2)C1C(=O)Nc1cccc(F)c1F (stereo not drawn) [Compound 11] | 0 |

Same assay, conditions: 500 g ai/ha, 0 to 100 scale

| SMILES | Plant response rating, Corn |
| --- | --- |
| O=C1NCC(Cc2cccc(C(F)(F)F)c2)C1C(=O)Nc1cccc(F)c1F (stereo not drawn) [Compound 11] | 0 |

System: barnyardgrass (Echinochloa crus-galli)
Experiment: Test A preemergence, barnyardgrass
Type: in vivo
Settings: 125 g ai/ha, 0 to 100 scale
Description: as §1

| SMILES | Plant response rating, Barnyardgrass |
| --- | --- |
| O=C1NCC(Cc2cccc(C(F)(F)F)c2)C1C(=O)Nc1cccc(F)c1F (stereo not drawn) [Compound 11] | 0 |

Same assay, conditions: 500 g ai/ha, 0 to 100 scale

| SMILES | Plant response rating, Barnyardgrass |
| --- | --- |
| O=C1NCC(Cc2cccc(C(F)(F)F)c2)C1C(=O)Nc1cccc(F)c1F (stereo not drawn) [Compound 11] | 0 |

System: wheat (Triticum aestivum)
Experiment: Test A postemergence, wheat
Type: in vivo
Settings: 125 g ai/ha, 0 to 100 scale
Description: as §1

| SMILES | Plant response rating, Wheat |
| --- | --- |
| O=C1NCC(Cc2cccc(C(F)(F)F)c2)C1C(=O)Nc1cccc(F)c1F (stereo not drawn) [Compound 11] | 0 |

Same assay, conditions: 500 g ai/ha, 0 to 100 scale

| SMILES | Plant response rating, Wheat |
| --- | --- |
| O=C1NCC(Cc2cccc(C(F)(F)F)c2)C1C(=O)Nc1cccc(F)c1F (stereo not drawn) [Compound 11] | 0 |

System: ducksalad (Heteranthera limosa)
Experiment: Test B flooded paddy test, ducksalad
Type: in vivo
Settings: Flood, 500 g ai/ha; scale of 0 to 100 where 0 is no effect and 100 is complete control; 13 to 15 d
Method: as §2

| SMILES | Plant response rating, Ducksalad |
| --- | --- |
| O=C1NCC(Cc2cccc(C(F)(F)F)c2)C1C(=O)Nc1cccc(F)c1F (stereo not drawn) [Compound 11] | 0 |

System: blackgrass (Alopecurus myosuroides)
Experiment: Test A postemergence, blackgrass
Type: in vivo
Settings: 125 g ai/ha, 0 to 100 scale
Description: as §1

| SMILES | Plant response rating, Blackgrass |
| --- | --- |
| O=C1NCC(Cc2cccc(C(F)(F)F)c2)C1C(=O)Nc1cccc(F)c1F (stereo not drawn) [Compound 11] | 0 |

Same assay, conditions: 500 g ai/ha, 0 to 100 scale

| SMILES | Plant response rating, Blackgrass |
| --- | --- |
| O=C1NCC(Cc2cccc(C(F)(F)F)c2)C1C(=O)Nc1cccc(F)c1F (stereo not drawn) [Compound 11] | 0 |

System: foxtail, giant (giant foxtail, Setaria faberii)
Experiment: Test A postemergence, foxtail, giant
Type: in vivo
Settings: 125 g ai/ha, 0 to 100 scale
Description: as §1

| SMILES | Plant response rating, Foxtail, Giant |
| --- | --- |
| O=C1NCC(Cc2cccc(C(F)(F)F)c2)C1C(=O)Nc1cccc(F)c1F (stereo not drawn) [Compound 11] | 0 |

Same assay, conditions: 500 g ai/ha, 0 to 100 scale

| SMILES | Plant response rating, Foxtail, Giant |
| --- | --- |
| O=C1NCC(Cc2cccc(C(F)(F)F)c2)C1C(=O)Nc1cccc(F)c1F (stereo not drawn) [Compound 11] | 0 |

System: ryegrass, It. (Italian ryegrass, Lolium multiflorum)
Experiment: Test A preemergence, ryegrass, It.
Type: in vivo
Settings: 125 g ai/ha, 0 to 100 scale
Description: as §1

| SMILES | Plant response rating, Ryegrass, It. |
| --- | --- |
| O=C1NCC(Cc2cccc(C(F)(F)F)c2)C1C(=O)Nc1cccc(F)c1F (stereo not drawn) [Compound 11] | 0 |

Same assay, conditions: 500 g ai/ha, 0 to 100 scale

| SMILES | Plant response rating, Ryegrass, It. |
| --- | --- |
| O=C1NCC(Cc2cccc(C(F)(F)F)c2)C1C(=O)Nc1cccc(F)c1F (stereo not drawn) [Compound 11] | 0 |

System: sedge, umbrella (small-flower umbrella sedge, Cyperus difformis)
Experiment: Test B flooded paddy test, sedge, umbrella
Type: in vivo
Settings: Flood, 500 g ai/ha; scale of 0 to 100 where 0 is no effect and 100 is complete control; 13 to 15 d
Method: as §2

| SMILES | Plant response rating, Sedge, Umbrella |
| --- | --- |
| O=C1NCC(Cc2cccc(C(F)(F)F)c2)C1C(=O)Nc1cccc(F)c1F (stereo not drawn) [Compound 11] | 0 |

System: kochia (Kochia scoparia)
Experiment: Test A postemergence, kochia
Type: in vivo
Settings: 125 g ai/ha, 0 to 100 scale
Description: as §1

| SMILES | Plant response rating, Kochia |
| --- | --- |
| O=C1NCC(Cc2cccc(C(F)(F)F)c2)C1C(=O)Nc1cccc(F)c1F (stereo not drawn) [Compound 11] | 0 |

Same assay, conditions: 500 g ai/ha, 0 to 100 scale

| SMILES | Plant response rating, Kochia |
| --- | --- |
| O=C1NCC(Cc2cccc(C(F)(F)F)c2)C1C(=O)Nc1cccc(F)c1F (stereo not drawn) [Compound 11] | 0 |

System: foxtail, giant (giant foxtail, Setaria faberii)
Experiment: Test A preemergence, foxtail, giant
Type: in vivo
Settings: 125 g ai/ha, 0 to 100 scale
Description: as §1

| SMILES | Plant response rating, Foxtail, Giant |
| --- | --- |
| O=C1NCC(Cc2cccc(C(F)(F)F)c2)C1C(=O)Nc1cccc(F)c1F (stereo not drawn) [Compound 11] | 0 |

Same assay, conditions: 500 g ai/ha, 0 to 100 scale

| SMILES | Plant response rating, Foxtail, Giant |
| --- | --- |
| O=C1NCC(Cc2cccc(C(F)(F)F)c2)C1C(=O)Nc1cccc(F)c1F (stereo not drawn) [Compound 11] | 0 |
